In patent US11529323B2 (priority 2017, dated 2022):

Columns and labels:
Format in all cases: in vivo, mouse
[1] = tested on: atrogin-1 (FBXO32), MuRF-1 (TRIM63), CEBPO (CEBPD); assay: qRT-PCR of atrophy-related genes in gastrocnemius muscle, Study 1; settings: relative to tumor-bearing controls, GTx-024 15 mg/kg, AR-42 10 mg/kg
Protocol: (§1) FIGS. 3A-B show gene expression of multiple cachexia-associated markers in gastrocnemius muscles of individual animals from Study 1 (n=5-6 per group). Expression was determined by qRT-PCR (Geometric Mean±Geometric STD). FIG. 3A contains bar graphs showing genes associated with muscle atrophy. FIG. 3B is a bar graph showing androgen receptor (AR) mRNA expression. […] Statistics all panels: *p<0.05, ***p<0.001, ****p<0.0001 versus tumor-bearing vehicle-treated controls, Dunnett's multiple comparison test. CEBPO, n=4, insufficient sample to analyze all tumor-bearing GTx-024-treated animals.
qRT-PCR: To generate muscle tissue RNA, 15 mg of gastrocnemius muscle tissue was lysed in 10 volumes of lysis buffer per tissue mass in prefilled 2.0 ml tubes with 3.0 mm zirconium beads (MIDSCl; St. Louis, Mo.). Tubes were loaded into Beadblaster™ 24 (MIDSCl; St. Louis, Mo.) and centrifuged for 5 cycles of 5 seconds with a 30 second pause between cycles. Lysate was collected and RNA was isolated using the mirVana™ miRNA Isolation Kit, with phenol (ThermoFisher; Waltham, Mass.). Samples were treated with DNA-free DNA Removal Kit to eliminate any DNA contamination (Invitrogen, Carlsbad, Calif.). […] As transformed expression data are not normally distributed, statistical differences between treatment groups were determined by one-way ANOVA followed by Dunnett's test on raw delta Ct values.

[2] = tested on: androgen receptor (AR); assay: Western blot of androgen receptor in gastrocnemius muscle, Study 1; settings: irrespective of tumor burden
Protocol: as §1
Western blots from all studies were performed on gastrocnemius muscle from representative animals lysed by Nonidet P-40 isotonic lysis buffer [50 mM Tris-HCl, pH 7.5, 120 mM NaCl, 1% (v/v) Nonidet P-40, 1 mM EDTA, 50 mM NaF, 40 mM glycerophosphate, and […] each of protease inhibitors (aprotinin, pepstatin, and leupeptin)]. Equivalent amounts of protein from each sample, as determined by Bradford assay (Bio-Rad), was resolved by SDS-PAGE and then transferred (semi-dry) onto immobilon-nitrocellulose membranes (Millipore, Billerica, Mass.). Membranes were washed twice with TBST [Tris-buffered saline (TBS) containing 0.1% Tween 20], blocked with 5% nonfat milk in TBST for 1 hour, and then washed an additional 3 times. […]

[3] = tested on: gastrocnemius transcriptome; assay: RNA-seq of gastrocnemius muscles, Study 1; settings: for expression of Wnt5a, Fzd1, β-catenin (CTNNB1) and GSK3B: gastrocnemius of tumor-bearing mice, AR-42: with the exception of β-catenin
Protocol: For each sample, 600 ng total RNA (Bioanalyzer RIN values>7) was used to generate polyA enriched RNA-seq libraries with the NEBNext Ultra II Directional RNA Library Prep Kit (New England Biolabs, Inc., catolog number E7760) and sequenced as PE-150 reads on HiSeq 4000 (Illumina Inc, San Diego, Calif.). Raw fastq files were adaptor trimmed using Trimmomatic (Bolger, A. M., et al. Bioinformatics 2014 30(15):2114-2120), aligned to the mm10 genome with Subread (Liao Y, et al. Nucleic Acids Res. 2013 41(10):e108), and marked for duplicate reads with Picard v2.3.0. Samtools (Li H., et al. Bioinformatics 2014 25:2078-9) was used to calculate post-alignment quality control metrics (Table 3). A gene-based counts matrix was generated with the summarizeOverlaps function of GenomicAlignments (Lawrence M, et al. PLoS Comput Biol 9(8):e1003118) and analyzed with DESeq2 (Love, M. I., et al. Genome biology 15(12):550) for genes differentially expressed among groups. GSEAPreranked analyses (Subramanian A, et al. Proc Natl Acad Sci USA. 2005 102:15545-15550) were performed using the signed log 10 p-values for each gene to test for significant enrichment of gene sets in the ‘TF Targets’ file downloaded from ge-lab.org/#/data. Any duplication in signed log 10 p-values was removed prior to running the GSEAPreranked analyses by adding a small value sampled at random from a normal distribution with mean zero and standard deviation 0.00001 to each duplicated value. GSEAPreranked analyses were performed in classic mode on gene sets with a minimum and maximum of 5 and 5000 genes in the gene set, respectively, and were followed by leading-edge analyses for selected comparison and gene set combinations. Heatmaps for RNA-seq data were generated with pheatmap using z-scores calculated from log count-per-million values obtained with the ‘cpm’ function in EdgeR (Robinson, M. D., et al. Bioinformatics 2010 26:139-140).

Structure (SMILES) | atrogin-1, MuRF-1, or CEBPO expression [1] | AR protein expression in gastrocnemius [2] | IL-6 receptor (IL-6RA) mRNA expression in gastrocnemius ([3]; cachectic mice) | expression of Wnt5a, Fzd1, β-catenin (CTNNB1) and GSK3B [3]
CC(C)[C@H](C(=O)Nc1ccc(C(=O)NO)cc1)c1ccccc1 [AR-42, (S)—N-hydroxy-4-(3-methyl-2-phenylbutanamido)benzamide] | significantly reduced the expression of each atrogene | did not have a marked impact on AR expression | restore non-cachectic control levels | effectively reversed tumor-induced regulation
C[C@](O)(COc1ccc(C#N)cc1)C(=O)Nc1ccc(C#N)c(C(F)(F)F)c1 [GTx-024, (2S)-3-(4-cyanophenoxy)-N-(4-cyano-3-(trifluoromethyl)phenyl)-2-hydroxy-2-methylpropanamide] | no significant impact | increased |  | failed to restore expression to tumor-free control levels
